Experimental data: patent publication US20060210479A1 (Dow Global Technologies Inc., priority 2004, published 2006)
Read-outs that look alike come from different tables or passages of the source.

Assays:
Caco-2 cells = experiment: Adsorption of chelate compounds to cells (HPLC and mass spectrometry); type: cell-based, human; settings: for Adsorption Caco-2: 50 µM chelate compound, 0, 30 and 90 minutes at 37 °C, % adsorbed relative to time zero
Excerpt: (§1) As a prerequisite for the understanding of the functional attributes of Tb-PCTMB and Eu-QCTME for diagnostics and therapeutic purposes, and for other uses, it is useful to synthesize a series of chelate compounds that contain structural elements of both PCTMB and QCTME and test these compounds for adsorption and permeability to different cell lines. The first approach was to test for adsorption to a normal cell line (HEK293) and to two epithelial cancer cell lines (LNCaP and Caco-2). The second approach, described in this example, involves testing only the compounds that adsorbed in the cancer cell lines and not in the normal cell lines for permeability. Adsorption and permeability of the compounds to epithelial cancer cell lines and a normal cell line was measured through the detection of the compound by HPLC and mass spectrometry.
(§2) Cell cultures. LNCaP cell line is a human prostate carcinoma. Cells were grown in RPMI 1640 Medium supplemented 10% FBS, 2 mM L-glutamine, glucose (2 g/L) augmented with gentamicin (50 μg/mL), penicillin/streptomycin (100 IU/mL/100 μg/mL) and amphotericin B (2.5 μg/mL). Caco-2 cell line is a human colorectal carcinoma. These cells were grown in Eagle's Minimum Essential Medium supplemented with 20% FBS, Earle's BSS, 2 mM L-glutamine, 1.0 mM sodium pyruvate, 0.1 mM nonessential amino acids augmented with gentamicin (50 μg/mL), penicillin/streptomycin (100 IU/mL/100 μg/mL), and amphotericin B (2.5 μg/mL). The human kidney transformed cells HEK293 were grown in Eagle's Minimum Essential Medium (EMEM) supplemented with 10% (v/v) heat-inactivated fetal bovine serum, sodium pyruvate, nonessential amino acids and antibiotics in a humidified 5% CO2 atmosphere at 37° C. Medium and supplements were purchased from Gibco BRL (Grand Island, N.Y.) and all cell lines were obtained from ATCC.
(§3) Detection of chelate compounds for the determination of adsorption. Cells were grown to confluence in T-150 flasks (about 2×10^7 cells). Before treating with chelate compounds, cells were rinsed twice with warm 10 mM HEPES (Gibco BRL, Grand Island N.Y.), removed from the flask, and transferred to a 50-mL conical tube and centrifuged (400×g) for 5 minutes. The resulting cells were treated with individual chelate compounds with 50 µM of chelate compounds in 10 mM HEPES, pH 7.4, 5 mM KCl, 150 mM NaCl, 0.7 mM NaH2PO4 for 0, 30, and 90 minutes at 37 ° C. After treatment, cells were pelleted by centrifugation and the resulting solution was analyzed by a combination of HPLC and mass spectrometry.

HEK293 cells = experiment: as above; type: cell-based, human; settings: for Adsorption HEK293: 50 µM chelate compound, 0, 30 and 90 minutes at 37 °C, % adsorbed relative to time zero
Excerpt: as §1, §2, §3

LNCaP cells = experiment: as above; type: cell-based, human; settings: for Adsorption LNCaP: 50 µM chelate compound, 0, 30 and 90 minutes at 37 °C, % adsorbed relative to time zero
Excerpt: as §1, §2, §3

[1] = Solubility of chelate compounds

## CN(C)Cc1cc(CN(C)C)cc(CN(C)C)c1 [Compound 13, (3,5-Bis-dimethylaminomethyl-benzyl)-dimethylamine]
Caco-2 cells
  Adsorption Caco-2: 0 (0 = 0-10%)
HEK293 cells
  Adsorption HEK293: 0 (0 = 0-10%)
LNCaP cells
  Adsorption LNCaP: 0 (0 = 0-10%)
[1]; <5% methanol, ethanol, or DMSO
  solubility: > 10 mM

## Cc1c(CN(C)C)c(C)c(CN(C)C)c(C)c1CN(C)C [Compound 16, (3,5-Bis-dimethylaminomethyl-2,4,6-trimethyl-benzyl)-dimethyl-amine]
Caco-2 cells
  Adsorption Caco-2: 0 (0 = 0-10%)
HEK293 cells
  Adsorption HEK293: 0 (0 = 0-10%)
LNCaP cells
  Adsorption LNCaP: 0 (0 = 0-10%)
[1]; <5% methanol, ethanol, or DMSO
  solubility: > 10 mM

## COP(=O)(O)Cc1c(C)c(CP(=O)(O)OC)c(C)c(CP(=O)(O)OC)c1C [Compound 10, [3,5-Bis-(Methoxy-hydroxy-phosphorylmethyl)-2,4,6-trimethyl-benzyl]-phosphonic acid monomethyl ester]
Caco-2 cells
  adsorption in carcinoma cell line Caco-2: did not adsorb
  Adsorption Caco-2: 0 (0 = 0-10%)
HEK293 cells
  adsorption in normal cells (HEK293): did not adsorb
  Adsorption HEK293: 0 (0 = 0-10%)
LNCaP cells
  adsorption in carcinoma cell line LNCaP: did not adsorb
  Adsorption LNCaP: 0 (0 = 0-10%)
[1]; <5% methanol, ethanol, or DMSO
  solubility: > 10 mM

## CCOP(=O)(O)Cc1c(C)c(CP(=O)(O)OCC)c(C)c(CP(=O)(O)OCC)c1C [Compound 11, [3,5-Bis-(Ethoxy-hydroxy-phosphorylmethyl)-2,4,6-trimethyl-benzyl]-phosphonic acid monoethyl ester]
Caco-2 cells
  Adsorption Caco-2: 0 (0 = 0-10%)
HEK293 cells
  Adsorption HEK293: 0 (0 = 0-10%)
LNCaP cells
  Adsorption LNCaP: 0 (0 = 0-10%)
[1]; <5% methanol, ethanol, or DMSO
  solubility: > 10 mM

## COP(=O)(O)CNCCCN(CCCNCP(=O)(O)OC)CP(=O)(O)OC [Compound 19, [(Bis-{3-[(hydroxy-methoxy-phosphorylmethyl)-amino]-propyl}-amino)-methyl]-phosphonic acid monomethyl ester]
Caco-2 cells
  Adsorption Caco-2: ++ (++ = 21-40%)
Caco-2 cells; Caco-2
  adsorption in carcinoma cell line Caco-2: adsorbed
HEK293 cells
  adsorption in normal cells (HEK293): adsorbed
  Adsorption HEK293: ++ (++ = 21-40%)
LNCaP cells
  adsorption in carcinoma cell line LNCaP: adsorbed
  Adsorption LNCaP: ++ (++ = 21-40%)
[1]; <5% methanol, ethanol, or DMSO
  solubility: > 10 mM

## CCOP(=O)(O)CNCCCN(CCCNCP(=O)(O)OCC)CP(=O)(O)OCC [Compound 20, [(Bis-{3-[(ethoxy-hydroxy-phosphorylmethyl)-amino]-propyl}-amino)-methyl]-phosphonic acid monoethyl ester]
Caco-2 cells
  Adsorption Caco-2: ++ (++ = 21-40%)
Caco-2 cells; Caco-2
  adsorption in carcinoma cell line Caco-2: adsorbed
HEK293 cells
  adsorption in normal cells (HEK293): adsorbed
  Adsorption HEK293: ++ (++ = 21-40%)
LNCaP cells
  adsorption in carcinoma cell line LNCaP: adsorbed
  Adsorption LNCaP: ++ (++ = 21-40%)
[1]; <5% methanol, ethanol, or DMSO
  solubility: > 10 mM

## CCN(CC)CCCN(CC)CCCN(CC)CC [Compound 23, N-(3-Diethylamino-propyl)-N,N′,N′-triethyl-propane-1,3-diamine]
Caco-2 cells
  adsorption in carcinoma cell line Caco-2: adsorbed
  Adsorption Caco-2: ++ (++ = 21-40%)
HEK293 cells
  adsorption in normal cells (HEK293): adsorbed
  Adsorption HEK293: + (+ = 11-20%)
LNCaP cells
  adsorption in carcinoma cell line LNCaP: adsorbed
  Adsorption LNCaP: + (+ = 11-20%)
[1]; <5% methanol, ethanol, or DMSO
  solubility: > 10 mM

## CCOP(=O)(O)Cc1cccc(CP(=O)(O)OCC)n1 [Compound 5, [6-(Hydroxy-ethoxy-phosphorylmethyl)-pyridin-2-ylmethyl]-phosphonic acid monoethyl ester]
Caco-2 cells
  Adsorption Caco-2: 0 (0 = 0-10%)
HEK293 cells
  Adsorption HEK293: + (+ = 11-20%)
LNCaP cells
  Adsorption LNCaP: + (+ = 11-20%)
[1]; <5% methanol, ethanol, or DMSO
  solubility: > 10 mM

## CCCCN(CCCC)Cc1c(C)c(CN(CCCC)CCCC)c(C)c(CN(CCCC)CCCC)c1C [Compound 18, (3,5-Bis-dibutylaminomethyl-2,4,6-trimethyl-benzyl)-dibutyl-amine]
[1]
  solubility: < 10 mM

## CCCCOP(=O)(O)Cc1cccc(CP(=O)(O)OCCCC)n1 [Compound 6, [6-(Hydroxy-butoxy-phosphorylmethyl)-pyridin-2-ylmethyl]-phosphonic acid monobutyl ester]
Caco-2 cells
  adsorption in carcinoma cell line Caco-2: adsorbed
  Adsorption Caco-2: +++ (+++ = 41-60%)
HEK293 cells
  adsorption in normal cells (HEK293): adsorbed
  Adsorption HEK293: +++ (+++ = 41-60%)
LNCaP cells
  adsorption in carcinoma cell line LNCaP: adsorbed
  Adsorption LNCaP: +++ (+++ = 41-60%)
[1]; <5% methanol, ethanol, or DMSO
  solubility: > 10 mM

## COP(=O)(O)Cc1cc(CP(=O)(O)OC)cc(CP(=O)(O)OC)c1 [Compound 7, [3,5-Bis-(Methoxy-hydroxy-phosphorylmethyl)-benzyl]-phosphonic acid monomethyl ester]
Caco-2 cells
  adsorption in carcinoma cell line Caco-2: did not adsorb
  Adsorption Caco-2: 0 (0 = 0-10%)
HEK293 cells
  adsorption in normal cells (HEK293): did not adsorb
  Adsorption HEK293: 0 (0 = 0-10%)
LNCaP cells
  adsorption in carcinoma cell line LNCaP: did not adsorb
  Adsorption LNCaP: 0 (0 = 0-10%)
[1]; <5% methanol, ethanol, or DMSO
  solubility: > 10 mM

## CCCCN(CCCC)Cc1cc(CN(CCCC)CCCC)cc(CN(CCCC)CCCC)c1 [Compound 15, (3,5-Bis-dibutylaminomethyl-benzyl)-dibutyl-amine]
[1]
  solubility: < 10 mM

## CCN(CC)Cc1c(C)c(CN(CC)CC)c(C)c(CN(CC)CC)c1C [Compound 17, (3,5-Bis-diethylaminomethyl-2,4,6-trimethyl-benzyl)-diethyl-amine]
[1]
  solubility: < 10 mM

## COP(=O)(O)Cc1ccc2cc(C)ccc2n1 [Compound 1]
Caco-2 cells
  adsorption in carcinoma cell line Caco-2: did not adsorb
  Adsorption Caco-2: 0 (0 = 0-10%)
HEK293 cells
  adsorption in normal cells (HEK293): did not adsorb
  Adsorption HEK293: 0 (0 = 0-10%)
LNCaP cells
  adsorption in carcinoma cell line LNCaP: did not adsorb
  Adsorption LNCaP: 0 (0 = 0-10%)
[1]; <5% methanol, ethanol, or DMSO
  solubility: > 10 mM

## COP(=O)(O)Cc1cccc(CP(=O)(O)OC)n1 [Compound 4, [6-(Hydroxy-methoxy-phosphorylmethyl)-pyridin-2-ylmethyl]-phosphonic acid monomethyl ester]
Caco-2 cells
  adsorption in carcinoma cell line Caco-2: adsorbed
  Adsorption Caco-2: ++ (++ = 21-40%)
HEK293 cells
  adsorption in normal cells (HEK293): adsorbed
  Adsorption HEK293: ++ (++ = 21-40%)
LNCaP cells
  adsorption in carcinoma cell line LNCaP: adsorbed
  Adsorption LNCaP: ++ (++ = 21-40%)
[1]; <5% methanol, ethanol, or DMSO
  solubility: > 10 mM
